Test results taken from US12660819B2, “Herbicidal derivatives” (SYNGENTA CROP PROTECTION AG, priority 2020, dated 2026).

Key:
Assay type in all cases: in vivo
Lolium perenne (LOLPE) [1] = assay: Pre-emergence Test (glasshouse, percentage damage to the plant); conditions: 1000 g/ha unless otherwise stated, five-point scale
Setaria faberi (SETFA) [2] = assay: as above; conditions: 1000 g/ha unless otherwise stated, five-point scale
[3] = test system: Ipomoea hederacea (IPOHE); assay: as above; conditions: 1000 g/ha unless otherwise stated, five-point scale
Solanum nigrum (SOLNI) [4] = assay: as above; conditions: 1000 g/ha unless otherwise stated, five-point scale
[5] = test system: Ipomoea hederacea (IPOHE); assay: Post-emergence Test (glasshouse, percentage damage to the plant); conditions: post-emergence spray, 1000 g/ha unless otherwise stated, evaluated after 13 days
Outline: (§1)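 Spray treatment of sown glasshouse pots at 1000 g/ha (default rate), vehicle acetone/water 50:50 plus 0.5% Tween 20. Read-out: percentage damage after 13 days, converted to a score where 5 denotes 81-100% and 1 denotes 0-20%.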

Setaria faberi (SETFA) [6] = assay: as above; conditions: post-emergence spray, 1000 g/ha unless otherwise stated, evaluated after 13 days
Outline: as §1

[7] = test system: Echinochloa crus-galli (ECHCG); assay: as above; conditions: post-emergence spray, 1000 g/ha unless otherwise stated, evaluated after 13 days
Outline: (§2)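 Sown pots; spray 1000 g/ha (unless stated) in acetone/water 50:50 + 0.5% Tween 20; glasshouse 24/16 °C, 14 h light, 65% RH; watered twice daily; % damage read at 13 days, scored 1–5.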

Lolium perenne (LOLPE) [8] = assay: as above; conditions: post-emergence spray, 1000 g/ha unless otherwise stated, evaluated after 13 days
Outline: as §2

Solanum nigrum (SOLNI) [9] = assay: as above; conditions: post-emergence spray, 1000 g/ha unless otherwise stated, evaluated after 13 days
Outline: as §2

[10] = test system: Amaranthus retoflexus (AMARE); assay: as above; conditions: post-emergence spray, 1000 g/ha unless otherwise stated, evaluated after 13 days
Outline: as §2

[11] = test system: Amaranthus retoflexus (AMARE); assay: Pre-emergence Test (glasshouse, percentage damage to the plant); conditions: 1000 g/ha unless otherwise stated, five-point scale
[12] = test system: Echinochloa crus-galli (ECHCG); assay: as above; conditions: 1000 g/ha unless otherwise stated, five-point scale

| Compound | percentage damage to the plant, LOLPE (Lolium perenne (LOLPE) [1]) | percentage damage to the plant, SETFA (Setaria faberi (SETFA) [2]) | percentage damage to the plant, IPOHE [3] | percentage damage to the plant, SOLNI (Solanum nigrum (SOLNI) [4]) | Post-emergence Test IPOHE, percentage damage to the plant (five-point scale) [5] | Post-emergence Test SETFA, percentage damage to the plant (five-point scale) (Setaria faberi (SETFA) [6]) | Post-emergence Test ECHCG, percentage damage to the plant (five-point scale) [7] | Post-emergence Test LOLPE, percentage damage to the plant (five-point scale) (Lolium perenne (LOLPE) [8]) | Post-emergence Test SOLNI, percentage damage to the plant (five-point scale) (Solanum nigrum (SOLNI) [9]) | Post-emergence Test AMARE, percentage damage to the plant (five-point scale) [10] | percentage damage to the plant, AMARE [11] | percentage damage to the plant, ECHCG [12] |
| --- | --- | --- | --- | --- | --- | --- | --- | --- | --- | --- | --- | --- |
| CCn1c(C)c(-c2ccoc2)c(=O)c(C(=O)O)c1-c1ccc(Cl)c(Cl)c1 [Compound 33, 2-(3,4-dichlorophenyl)-1-ethyl-5-(3-furyl)-6-methyl-4-oxo-pyridine-3-carboxylic acid] | 1 (1=0-20%) | 1 (1=0-20%) | 2 (2=21-40%) | 1 (1=0-20%) | 3 (3=41-60%) | 1 (1=0-20%) | 2 (2=21-40%) | 2 (2=21-40%) | 3 (3=41-60%) | 3 (3=41-60%) | 1 (1=0-20%) | 1 (1=0-20%) |
| CCn1c(C)c(-c2cccnc2)c(=O)c(C(=O)O)c1-c1ccc(Cl)c(Cl)c1 [Compound 19, 2-(3,4-dichlorophenyl)-1-ethyl-6-methyl-4-oxo-5-(3-pyridyl)pyridine-3-carboxylic acid] | 1 (1=0-20%) | 1 (1=0-20%) | 1 (1=0-20%) | 1 (1=0-20%) | 4 (4=61-80%) | 4 (4=61-80%) | 5 (5=81-100%) | 3 (3=41-60%) | 5 (5=81-100%) | 4 (4=61-80%) | 1 (1=0-20%) | 1 (1=0-20%) |
| CCn1c(C)c(-c2cccnc2F)c(=O)c(C(=O)O)c1-c1ccc(Cl)c(Cl)c1 [Compound 6, 2-(3,4-dichlorophenyl)-1-ethyl-5-(2-fluoro-3-pyridyl)-6-methyl-4-oxo-pyridine-3-carboxylic acid] | 4 (4=61-80%) | 5 (5=81-100%) | 1 (1=0-20%) | 3 (3=41-60%) | 1 (1=0-20%) | 4 (4=61-80%) | 4 (4=61-80%) | 4 (4=61-80%) | 3 (3=41-60%) | 4 (4=61-80%) | 4 (4=61-80%) | 4 (4=61-80%) |
| CCn1c(C)c(-c2cncn2C)c(=O)c(C(=O)OC)c1-c1ccc(Cl)c(Cl)c1 [Compound 39, methyl 2-(3,4-dichlorophenyl)-1-ethyl-6-methyl-5-(3-methylimidazol-4-yl)-4-oxo-pyridine-3-carboxylate] | 1 (1=0-20%) | 1 (1=0-20%) | 1 (1=0-20%) | 1 (1=0-20%) | 1 (1=0-20%) | 1 (1=0-20%) | 1 (1=0-20%) | 1 (1=0-20%) | 1 (1=0-20%) | 1 (1=0-20%) | 1 (1=0-20%) | 1 (1=0-20%) |
